Data reported in article PMC7377239, “Cardiovascular Effects of Polychlorinated Biphenyls and Their Major Metabolites” (Environmental Health Perspectives, 2020).
Structures can show the parent of a compound that is named as a salt. Where two headings read alike, the source gives them in different places.

Columns and labels:
[1] = tested on: iCell cardiomyocytes (human iPSC-derived cardiomyocytes); assay: High-content imaging of cytotoxicity and mitochondrial integrity in iPSC-CMs; assay type: cell-based; settings: Homo sapiens, Cardiomyocyte; for viability at 0.01 µM / activity at 0.01 µM / viability at 0.1 µM / activity at 0.1 µM / viability at 1 µM / activity at 1 µM / viability at 10 µM / activity at 10 µM / viability at 100 µM / activity at 100 µM: 0.00 µM = 100.00; for viability at 0.1 µM / activity at 0.1 µM: 0.10 µM
Description: Details on cardiomyocyte cell culture are described in detail elsewhere ([Grimm et al. 2015b]; [Sirenko et al. 2013a]). Briefly, tissue-culture treated 384 well plates were gelatinized with 25μL per well of 0.1% (w/v) gelatin in water for 2 h at 37°C and 5% CO2 . Individual vials of cells were thawed for 4 min in a water bath maintained at 37°C. Thawed cells were resuspended in 10ml plating medium containing 1:500 (vol/vol) penicillin/streptomycin solution at room temperature (RT). Live cell counts for each cell suspension were determined by trypan blue staining and cells were further diluted to provide final cell densities of 2×10^5 viable cells/ml. Thus, 5,000 cells suspended in 25μL media were transferred per well after the gelatin solution had been discarded. Cell culture plates were rested for 30 min at RT before they were incubated for 48 h at 37°C and 5% CO2 . Then, a media exchange with 30μL of fresh maintenance medium containing 1:500 (vol/vol) penicillin/streptomycin solution was performed, and cell media were subsequently changed every 48 h for 12 d. On the experiment day, the medium was completely exchanged with either 25μL (for Ca^2+ flux assay) or 40μL (for imaging) of fresh medium.
Cytotoxicity and effects on mitochondrial integrity of various PCBs and PCB metabolites in induced pluripotent stem cell-CMs (iPSC-CMs) were assessed using high-content cellular imaging in ImageXpress® Micro Confocal (Molecular Devices) as detailed in ([Grimm et al. 2015b]). Cells in 40μL maintenance media were treated with 10μL of 5× chemical solutions to provide test chemicals at final assay concentrations ranging from 0.01 to 100μM . […] Next, sample wells were treated with 50μL equilibrated 2× concentrated staining solution (maintenance medium containing Hoechst 33342, 4μg/mL and MitoTracker™ Orange, 0.4μM ). Microplates were then incubated for 15 min at 37°C and 5% CO2 before cells were washed twice with 30μL maintenance medium. All media were aspirated and discarded, and cells were fixed with […] of a 3.7% formaldehyde solution for 15 min at 37°C and 5% […] . Fixed cells were washed 3× with 25μL PBS before image acquisition using the DAPI (Hoechst 33342) and Cy3 (MitoTracker™ Orange) filters at 10× magnification on the ImageXpress® Micro Confocal high-content confocal microscope (Molecular Devices). The multiwavelength cell scoring applications module in MetaXpress® was used to analyze acquired images.
(§1) Phenotypic responses were quantitatively assessed using concentration–response modeling as detailed elsewhere ([Sirenko et al. 2017]). Briefly, phenotypic readouts were normalized to vehicle controls and fit to a four-parameter logistic model in R studio software (version 3.1.1; R Development Core Team). Following EPA guidance on dose–response modeling, a cutoff of one standard deviation across means of vehicle control (i.e., 0.5% vol/vol DMSO in cell culture media) wells was applied to determine the point-of-departure (POD) values ([U.S. EPA 2012]). In the absence of a concentration–response, the highest tested concentration (i.e., 100μM ) was assigned as “no observable adverse effect level.” The concentration–response assessment R script, as well as templates for vehicle and concentration–response data, are available as a supplement to Sirenko et al. ([2017]). The ability of physicochemical properties to predict differences in PODs were evaluated by multiregression and mixed-effects modeling using R.

HUVECs = assay: High-content imaging cytotoxicity in HUVECs, 24 h; assay type: cell-based, human; settings: Homo sapiens, HUVEC, 24 h, HUVECs; for viability at 0.01 µM / activity at 0.01 µM / viability at 0.1 µM / activity at 0.1 µM / viability at 1 µM / activity at 1 µM / viability at 10 µM / activity at 10 µM / viability at 100 µM / activity at 100 µM: 0.00 µM = 100.00; for viability at 0.1 µM / activity at 0.1 µM: 0.10 µM; for minimal effective concentration: top concentration 100.00 µM
Description: Similar to the cultivation of iCell®-endothelial cells, HUVEC maintenance and experimentation are detailed elsewhere ([Iwata et al. 2017]). Briefly, HUVECs were thawed, seeded, and grown in T75 tissue culture flasks in Medium 199 with EGM™-2 BulletKits™. HUVECs were incubated at regular cell culture conditions, 37°C and 5% CO2 , and passaged every 2–3 d using TrypLE™ Express. To ensure adequate endothelial function, experiments were performed with cells between passages 1 and 5.
Cytotoxicity was assessed in parallel experiments. For iCell®-endothelial cells, 384-well plates were coated with a 30μg/mL fibronectin solution ( 10μL/well ) and incubated for 2 h at RT. iCell®-endothelial cells were dissociated with TrypLE™ Express and prepared into a solution to achieve 750 cells per well and 50μL of total volume. The fibronectin solution was removed from the 384-well plate, and cells were plated. For HUVECs, similar dissociation and the same cell density were used for plating with the exclusion of the fibronectin solution. Cells were incubated at 37°C and 5% CO2 until a monolayer was formed, typically 3–5 d. 2×PCB plates were created with the requisite maintenance medium. Before treatment, the medium in the wells was exchanged to 25μL/well of fresh maintenance medium. 2×PCB chemical solutions ( […] ) were added. After 24 h incubation at 37°C and 5% CO2 , cells were stained with Hoechst 33342, MitoTracker™ Orange, and calcein AM for 20 min before replacing the staining media with FluoroBright DMEM. Cell culture plates were imaged using the ImageXpress® Micro Confocal high-content imaging system (Molecular Devices). Images were acquired at 10× magnification with DAPI, TRITC, or FITC filter (Hoechst 33342, MitoTracker™, or calcein AM, respectively). The multiwavelength cell scoring applications module in MetaXpress™ (Molecular Devices) was used to analyze the images.
as §1

[2] = 1.5 h, 90min, read-out: cm.cam.90min
[3] = 1.5 h, 90min, read-out: cm.mii.90min
[4] = 1.5 h, 90min, read-out: cm.mito.90min
[5] = 1.5 h, 90min, read-out: cm.tc.90min
[6] = 24 h, 24hrs, read-out: cm.cam.24hrs
[7] = 24 h, 24hrs, read-out: cm.mii.24hrs
[8] = 24 h, 24hrs, read-out: cm.mito.24hrs
[9] = 24 h, 24hrs, read-out: cm.tc.24hrs
[10] = 24 hr, read-out: huvec.cyto.24hr
[11] = 24 hr, read-out: huvec.mito.24hr
[12] = 24 hr, read-out: huvec.mitoint.24hr
[13] = 24 hr, read-out: huvec.nma.24hr
[14] = 24 hrs, read-out: huvec.tc.24hrs

Structure (SMILES): O=S(=O)(O)Oc1cc(Cl)c(-c2cc(Cl)ccc2Cl)cc1Cl [4-yl PCB 52 sulfate]
- viability at 0.01 µM [1, 2]: 106%
- activity at 0.01 µM [1, 3]: 103%
- activity at 0.01 µM [1, 4]: 106%
- viability at 0.01 µM [1, 5]: 106%
- viability at 0.1 µM [1, 2]: 93.3%
- activity at 0.1 µM [1, 3]: 129%
- activity at 0.1 µM [1, 4]: 92.9%
- viability at 0.1 µM [1, 5]: 92.8%
- viability at 1 µM [1, 2]: 98.7%
- activity at 1 µM [1, 3]: 130%
- activity at 1 µM [1, 4]: 98.5%
- viability at 1 µM [1, 5]: 98.4%
- viability at 10 µM [1, 2]: 97.1%
- activity at 10 µM [1, 3]: 109%
- activity at 10 µM [1, 4]: 96.8%
- viability at 10 µM [1, 5]: 97.1%
- viability at 100 µM [1, 2]: 0.07%
- activity at 100 µM [1, 3]: 31.5%
- activity at 100 µM [1, 4]: 0.16%
- viability at 100 µM [1, 5]: 0.16%
- minimal effective concentration ([1]; 1.5 h, 90min, read-out: cm.cam.90min POD): 10.8 µM
- minimal effective concentration ([1]; 1.5 h, 90min, read-out: cm.mii.90min POD): 41.2 µM
- minimal effective concentration ([1]; 1.5 h, 90min, read-out: cm.mito.90min POD): 10.6 µM
- minimal effective concentration ([1]; 1.5 h, 90min, read-out: cm.tc.90min POD): 10.8 µM
- viability at 0.01 µM [1, 6]: 95.3%
- activity at 0.01 µM [1, 7]: 98.6%
- activity at 0.01 µM [1, 8]: 93.3%
- viability at 0.01 µM [1, 9]: 96.5%
- viability at 0.1 µM [1, 6]: 103%
- activity at 0.1 µM [1, 7]: 122%
- activity at 0.1 µM [1, 8]: 104%
- viability at 0.1 µM [1, 9]: 104%
- viability at 1 µM [1, 6]: 104%
- activity at 1 µM [1, 7]: 111%
- activity at 1 µM [1, 8]: 104%
- viability at 1 µM [1, 9]: 104%
- viability at 10 µM [1, 6]: 91.5%
- activity at 10 µM [1, 7]: 107%
- activity at 10 µM [1, 8]: 89.6%
- viability at 10 µM [1, 9]: 91.7%
- viability at 100 µM [1, 6]: 1.67%
- activity at 100 µM [1, 7]: 12.2%
- activity at 100 µM [1, 8]: 0.34%
- viability at 100 µM [1, 9]: 3.82%
- minimal effective concentration ([1]; 24 h, read-out: cm.cam.24hrs POD): 8.2 µM
- minimal effective concentration ([1]; 24 h, read-out: cm.mii.24hrs POD): 44.6 µM
- minimal effective concentration ([1]; 24 h, read-out: cm.mito.24hrs POD): 8.28 µM
- minimal effective concentration ([1]; 24 h, read-out: cm.tc.24hrs POD): 8.44 µM
- viability at 0.01 µM (HUVECs; [10]): 99.3%
- activity at 0.01 µM (HUVECs; [11]): 98.2%
- activity at 0.01 µM (HUVECs; [12]): 110%
- activity at 0.01 µM (HUVECs; [13]): 98.4%
- viability at 0.1 µM (HUVECs; [10]): 105%
- activity at 0.1 µM (HUVECs; [11]): 105%
- activity at 0.1 µM (HUVECs; [12]): 113%
- activity at 0.1 µM (HUVECs; [13]): 96.2%
- viability at 1 µM (HUVECs; [10]): 93.5%
- activity at 1 µM (HUVECs; [11]): 92.9%
- activity at 1 µM (HUVECs; [12]): 107%
- activity at 1 µM (HUVECs; [13]): 99.1%
- viability at 10 µM (HUVECs; [10]): 91.2%
- activity at 10 µM (HUVECs; [11]): 89.3%
- activity at 10 µM (HUVECs; [12]): 111%
- activity at 10 µM (HUVECs; [13]): 98.4%
- viability at 100 µM (HUVECs; [10]): 59.6%
- activity at 100 µM (HUVECs; [11]): 61.8%
- activity at 100 µM (HUVECs; [12]): 74.7%
- activity at 100 µM (HUVECs; [13]): 206%
- minimal effective concentration (HUVECs; 24 hr, read-out: huvec.cyto.24hr POD): 5.38 µM
- minimal effective concentration (HUVECs; 24 hr, read-out: huvec.mito.24hr POD): 3.31 µM
- minimal effective concentration (HUVECs; 24 hr, read-out: huvec.mitoint.24hr POD): 61.2 µM
- minimal effective concentration (HUVECs; 24 hr, read-out: huvec.nma.24hr POD): 33.9 µM
- viability at 0.01 µM (HUVECs; [14]): 99.3%
- viability at 0.1 µM (HUVECs; [14]): 105%
- viability at 1 µM (HUVECs; [14]): 93.5%
- viability at 10 µM (HUVECs; [14]): 91.2%
- viability at 100 µM (HUVECs; [14]): 61.8%
- minimal effective concentration (HUVECs; 24 hrs, read-out: huvec.tc.24hrs POD): 5.38 µM
